Assays:
[1] = Comparative study of the solubility of a triazine derivative in different solvents; type: physicochemical; conditions: heated to 83° C., crystals observed after 24 hours and cooling to room temperature
Protocol: Comparative Study of the Solubility of a Triazine Derivative in Different Solvents The solubility of a triazine derivative (i.e., 2,4,6-tris(diisobutyl 4′-aminobenzalmalonate)-s-triazine) in different solvents was determined by means of the following test:
20 g of solvent are added, at room temperature, to 5 g of screening agent, the mixture thus obtained is brought to 83° C. using a water bath, the presence or absence of crystals is observed after 24 hours and cooling to room temperature.
The results obtained are collated in the table below (the chemical names are given in the CTFA nomenclature, 5th edition, 1993).

[2] = Test of in vitro efficacy: in vitro sun protection factor (Diffey method) of O/W emulsions; conditions: screening agent 5% in O/W support, mean of three SPF values
From the text: Test of In Vitro Efficacy:
The method for evaluating the protection factor used is the in vitro method described by B. L. Diffey et al. in J. Soc. Cosmet. Chem. 40-127-133 (1989), which consists in determining the monochromatic protection factors every 5 nm in a wavelength range from 290 to 400 nm, and in calculating therefrom the sun protection factor according to a given mathematical equation.
Two screening agents of triazine type were formulated in a support of O/W type, at 5% by weight, in the solvent according to the invention and in a comparative solvent (Finsolv TN), and three SPF values, the mean and the standard deviation of which are collated in the table below, were determined for each formulation: […]

[3] = solvent 15% C12-C15 alkyl benzoate "Finsolv TN" (comparative)
[4] = solvent 15% n-butylphthalimide/isopropylphthalimide Pelemol BIP (invention)

SMILES | SOLUBILITY OF THE TRIAZINE SCREENING AGENT ([1]; solvent: C8-C12 fatty acid triglycerides "Miglyol 812") | SOLUBILITY OF THE TRIAZINE SCREENING AGENT ([1]; solvent: C12-C15 alkyl benzoate "Finsolv TN") | SOLUBILITY OF THE TRIAZINE SCREENING AGENT ([1]; solvent: PPG-3 myristyl ether "Witconol APM") | SOLUBILITY OF THE TRIAZINE SCREENING AGENT ([1]; solvent: n-butylphthalimide/isopropylphthalimide eutectic mixture Pelemol BIP (invention)) | Mean SPF (Standard Deviation) [2, 3] | Mean SPF (Standard Deviation) [2, 4]
CC(C)COC(=O)C(=Cc1ccc(Nc2nc(Nc3ccc(C=C(C(=O)OCC(C)C)C(=O)OCC(C)C)cc3)nc(Nc3ccc(C=C(C(=O)OCC(C)C)C(=O)OCC(C)C)cc3)n2)cc1)C(=O)OCC(C)C [2,4,6-tris(diisobutyl 4′-aminobenzalmalonate)-s-triazine] | <10% | <10% | <10% | 40% | 4.1 | 8.0
CCCCC(CC)COc1ccc(-c2nc(-c3ccc(OC)cc3)nc(-c3ccc(OCC(CC)CCCC)cc3O)n2)c(O)c1 (centres unmarked) [Anisotriazine] |  |  |  |  | 8.5 | 11.4

From patent US20040151677A1, “1,3,5-Triazine sunscreens solubilized in mixed phthalimide eutectics” (SOCIETE L'OREAL, S.A., priority 2002, published 2004)
